According to ChEMBL document CHEMBL3046344, “Phytochemical based strategies for nematode control” (2002):
Values after ≈ are worked out from the molar mass of the structure shown. Numbered stars: 1 amine (or outer) side, 2 acyl side, 3 side chain; on linkers, the order of the positions; unused ones are H or OH. Bridge positions count the residues as written; N and C are the ends. Square brackets hold non-standard residues; d marks the D form. Peptide text beside a SMILES is read from it. NMeW = CN[C@@H](Cc1c[nH]c2ccccc12)C(=O)O; X1 = CC(C)[C@@H](C(=O)[*:1])N(C)O[*:2]; NMeI = CC[C@H](C)[C@H](NC)C(=O)O; NMeV = CN[C@H](C(=O)O)C(C)C; Sar = CNCC(=O)O

Columns and labels:
Format in all cases: functional
Meloidogyne incognita [1] = assay: Nematocidal activity against Meloidogyne incognita (root-knot nematode) assessed as mortality at 10 ug/ml
Panagrellus redivivus [2] = assay: Nematocidal activity against Panagrellus redivivus assessed as mortality at 12.5 ug/ml
Caenorhabditis elegans [3] = assay: Nematocidal activity against Caenorhabditis elegans assessed as mortality at 50 ug/ml
Caenorhabditis elegans [4] = assay: Nematocidal activity against Caenorhabditis elegans assessed as mortality; settings: for LC50 / minimal effective concentration: Caenorhabditis elegans; for minimal effective concentration: read-out: MEC
Meloidogyne incognita [5] = assay: Nematocidal activity against Meloidogyne incognita (root-knot nematode) assessed as inhibition of penetration in tomato root at 25 ug/ml; parameters: scale not given: the % may be the effect or the level left
Panagrellus redivivus [6] = assay: Nematocidal activity against Panagrellus redivivus; settings: read-out: ED50 (the source's name)
Meloidogyne incognita [7] = assay: Nematocidal activity against Meloidogyne incognita (root-knot nematode); settings: read-out: LD50 (the source's name)
Radopholus similis = assay: Nematocidal activity against Radopholus similis; settings: read-out: LD50 (the source's name)
Heterodera schachtii = assay: Nematocidal activity against Heterodera schachtii; settings: read-out: LD50 (the source's name)
Pratylenchus penetrans [8] = assay: Nematocidal activity against Pratylenchus penetrans; settings: read-out: LD50 (the source's name)
Ditylenchus dipsaci = assay: Nematocidal activity against Ditylenchus dipsaci assessed as motility; settings: read-out: ED50 (the source's name)
Meloidogyne incognita [9] = assay: Nematocidal activity against Meloidogyne incognita (root-knot nematode) in tomato assessed as reduction of infection at 50 ug/ml; parameters: scale not given: the % may be the effect or the level left
Pratylenchus penetrans [10] = assay: Nematocidal activity against Pratylenchus penetrans assessed as motility and viability
Meloidogyne incognita [11] = assay: Nematocidal activity against Meloidogyne incognita (root-knot nematode) assessed as motility and viability
[12] = read-out: LD50 (the source's name)

CCCCCCCC/C=C\C(=O)O [2-UNDECYLENIC ACID]
Activity (Meloidogyne incognita [1]): 70%

CCCCC1OC(=O)C2=C1CCC=C2 (centres undefined) [3-N-BUTYL-4,5-DIHYDROPHTHALIDE]
Activity (Panagrellus redivivus [2]): 100%
Activity (Caenorhabditis elegans [3]): 100%

CC(=O)C#Cc1ccccc1 [4-PHENYL-3-BUTYN-2-ONE]
LC50 (Caenorhabditis elegans [4]; read-out: LC50): 0.3 µg/mL (≈ 2.08 µM)

C=Cc1ccc(O)cc1 [4-VINYLPHENOL]
minimal effective concentration (Caenorhabditis elegans [4]): 300 µg/mL

C=CCS[S+]([O-])CC=C (centres undefined) [ALLICIN]
Activity (Meloidogyne incognita [5]): 50%

C[C@H]1CC[C@@H]2[C@@H](C)[C@H]3[C@H](C[C@H]4[C@@H]5CC=C6C[C@@H](O[C@@H]7O[C@H](CO)[C@H](O[C@@H]8O[C@@H](C)[C@H](O)[C@@H](O)[C@H]8O)[C@H](O)[C@@H]7O[C@@H]7O[C@@H](C)[C@@H](O)[C@@H](O)[C@H]7O)CC[C@]6(C)[C@H]5CC[C@]34C)N2C1 [ALPHA-CHACONINE]
EC50 (Panagrellus redivivus [6]): 85 µg/mL (≈ 99.8 µM)

Oc1ccccc1O [CATECHOL]
Activity (Caenorhabditis elegans [4]): 100%

C=CCc1ccc(O)cc1 [CHAVICOL]
minimal effective concentration (Caenorhabditis elegans [4]): 300 µg/mL

COc1c(-c2ccco2)coc(=O)c1C [CLADOBOTRIN]
LC50 (Meloidogyne incognita [7]): 100 µg/mL (≈ 485 µM)

COc1cc(CC(C)C(C)Cc2ccc(O)c(OC)c2)ccc1O (centres undefined) [DIHYDROGUAIARETIC ACID]
LC50 (Caenorhabditis elegans [4]; [12]): 10 µg/mL (≈ 30.3 µM)

C=CCc1ccc(O)c(O)c1 [HYDROXYCHAVICOL]
minimal effective concentration (Caenorhabditis elegans [4]): 300 µg/mL

CCCCC/C=C\C/C=C\CCCCCCCC(=O)O [LINOLEIC ACID]
LC50 (Caenorhabditis elegans [4]; [12]): 5 µg/mL (≈ 17.8 µM)
LC50 (Meloidogyne incognita [7]): 50 µg/mL (≈ 178 µM)

CC[C@H](C)[C@H]1C(=O)NCC(=O)N(C)[C@@H](Cc2c[nH]c3ccccc23)C(=O)N[C@@H](C(C)C)C(=O)N(C)[C@@H]([C@@H](C)CC)C(=O)N(C)[C@@H](C(C)C)C(=O)ON(C)[C@@H](C(C)C)C(=O)N(C)CC(=O)N(C)[C@@H](C(C)C)C(=O)N(C)[C@@H]([C@@H](C)CC)C(=O)N(C)CC(=O)N[C@@H](C(C)C)C(=O)N1C [OMPHALOTIN A] ([Sar][NMeV][NMeI][Sar]V[NMeI]G[NMeW]V[NMeI][NMeV]; linker N-C via X1)
LC50 (Meloidogyne incognita [7]): 0.75 µg/mL (≈ 0.562 µM)
LC50 (Radopholus similis): > 75 µg/mL
LC50 (Heterodera schachtii): 30 µg/mL (≈ 22.5 µM)
LC50 (Pratylenchus penetrans [8]): 25 µg/mL (≈ 18.7 µM)

COc1cc(O)cc(/C=C/c2ccccc2)c1 [PINOSYLVIN METHYL ETHER]
LC50 (Caenorhabditis elegans [4]; [12]): 4 µg/mL (≈ 17.7 µM)

C=C(C)[C@@H]1CCC2=C[C@@H](O)[C@H](O)[C@@H](C)C2C1 (some centres undefined) [RISHITIN]
EC50 (Ditylenchus dipsaci): 100 µg/mL (≈ 450 µM)

C=C/C=C/C#CC1=CC=C(C#CC)SS1 [THIARUBRINE C]
Activity (Meloidogyne incognita [9]): 95%
LC50 (Pratylenchus penetrans [10]): 23500 µg/mL (≈ 102000 µM)
LC50 (Meloidogyne incognita [11]): 12400 µg/mL (≈ 53800 µM)

C[C@H]1CC[C@]2(NC1)O[C@H]1C[C@H]3[C@@H]4CC[C@H]5C[C@@H](O[C@@H]6O[C@H](CO)[C@H](O[C@@H]7O[C@H](CO)[C@@H](O)[C@H](O[C@@H]8OC[C@@H](O)[C@H](O)[C@H]8O)[C@H]7O[C@@H]7O[C@H](CO)[C@@H](O)[C@H](O)[C@H]7O)[C@H](O)[C@H]6O)CC[C@]5(C)[C@H]4CC[C@]3(C)[C@H]1[C@@H]2C [TOMATINE]
EC50 (Panagrellus redivivus [6]): 50 µg/mL (≈ 48.3 µM)
